Test results reported in patent US10189841B2, “Purinones as ubiquitin-specific protease 1 inhibitors” (Forma Therapeutics, Inc., priority 2015, dated 2019).

The compounds below were run against USP1 (construct USP1 (I-785, GG670, 671AA)/UAF1 (I-677)-Flag) (Homo sapiens (Human), UniProt O94782, G670A/G671A) (assay: Ubiquitin-Rhodamine 110 assay for USP1 activity). Settings: USP1/UAF1 25 pM, Ub-Rh110 25 nM, 30 min preincubation.
Format: biochemical
In short: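 Ub-Rh110 (25 nM, ≪Km) cleavage read at ex 485/em 535 in Tris pH 8.0, CaCl2, GSH, Prionex, Triton X-100. The screen used 10 µM compound, 100 pM USP1/UAF1 and 45 min at RT.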

Chain of USP1 (construct USP1 (I-785, GG670, 671AA)/UAF1 (I-677)-Flag) (O94782 whole entry G670A/G671A): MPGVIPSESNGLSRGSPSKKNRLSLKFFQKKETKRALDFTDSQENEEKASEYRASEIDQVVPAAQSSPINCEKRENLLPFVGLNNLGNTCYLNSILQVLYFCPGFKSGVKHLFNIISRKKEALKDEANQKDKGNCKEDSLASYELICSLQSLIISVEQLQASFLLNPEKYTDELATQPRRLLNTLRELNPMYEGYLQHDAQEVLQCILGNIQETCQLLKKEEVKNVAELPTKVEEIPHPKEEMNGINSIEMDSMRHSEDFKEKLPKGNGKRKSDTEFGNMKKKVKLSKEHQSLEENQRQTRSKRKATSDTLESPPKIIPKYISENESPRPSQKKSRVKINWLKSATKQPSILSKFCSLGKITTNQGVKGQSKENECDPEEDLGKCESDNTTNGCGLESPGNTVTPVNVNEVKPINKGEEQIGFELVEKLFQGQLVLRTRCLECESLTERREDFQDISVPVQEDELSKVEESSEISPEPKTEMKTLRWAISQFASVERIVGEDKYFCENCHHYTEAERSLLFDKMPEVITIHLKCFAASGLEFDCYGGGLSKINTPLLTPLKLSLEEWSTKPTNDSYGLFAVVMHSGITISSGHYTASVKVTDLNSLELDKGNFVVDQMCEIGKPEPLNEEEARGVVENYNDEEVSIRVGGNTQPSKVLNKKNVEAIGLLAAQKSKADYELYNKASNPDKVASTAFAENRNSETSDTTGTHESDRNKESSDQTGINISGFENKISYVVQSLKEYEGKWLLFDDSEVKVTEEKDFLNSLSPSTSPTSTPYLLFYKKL
Chain of USP1 (construct USP1 (I-785, GG670, 671AA)/UAF1 (I-677)-Flag) (Q8TAF3 whole entry partner): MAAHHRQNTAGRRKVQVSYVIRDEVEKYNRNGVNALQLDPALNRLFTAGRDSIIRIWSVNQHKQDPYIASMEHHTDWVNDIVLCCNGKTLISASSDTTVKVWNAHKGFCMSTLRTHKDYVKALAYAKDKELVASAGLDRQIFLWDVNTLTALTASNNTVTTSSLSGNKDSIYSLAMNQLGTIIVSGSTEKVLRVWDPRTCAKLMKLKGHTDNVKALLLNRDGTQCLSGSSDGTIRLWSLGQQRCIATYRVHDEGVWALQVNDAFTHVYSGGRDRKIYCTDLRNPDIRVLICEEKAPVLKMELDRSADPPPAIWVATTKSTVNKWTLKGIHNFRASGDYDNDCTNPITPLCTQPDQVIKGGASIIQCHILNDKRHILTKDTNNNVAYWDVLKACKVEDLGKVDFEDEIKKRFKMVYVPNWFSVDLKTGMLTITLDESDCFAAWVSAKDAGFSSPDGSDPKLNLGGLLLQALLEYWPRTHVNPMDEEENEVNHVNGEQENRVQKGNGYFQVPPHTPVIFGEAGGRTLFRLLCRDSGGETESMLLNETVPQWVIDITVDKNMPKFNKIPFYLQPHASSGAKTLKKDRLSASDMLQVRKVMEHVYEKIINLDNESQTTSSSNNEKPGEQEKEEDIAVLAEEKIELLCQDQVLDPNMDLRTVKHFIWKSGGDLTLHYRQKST

First: CC(=O)N1CCN(C(=O)c2ccc(Cn3c(=O)[nH]c4cnc(-c5ccccc5C(C)C)nc43)cc2)CC1 [Compound I-383, 9-(4-(4-acetylpiperazine-1-carbonyl)benzyl)-2-(2-isopropylphenyl)-7,9-dihydro-8H-purin-8-one]
Second: CC(C)c1ccccc1-c1ncc2[nH]c(=O)n(Cc3ccc(C(=O)N4CCN(C)CC4)cc3)c2n1 [Compound I-410, 2-(2-isopropylphenyl)-9-(4-(4-methylpiperazine-1-carbonyl)benzyl)-7,9-dihydro-8H-purin-8-one]
The IC50 of the first is lower: 200 to 2000 nM for the first, greater than 2000 nM for the second.

First: COCCO[C@H]1CCN(C(=O)c2ccc(Cn3c(=O)[nH]c4cnc(-c5ccccc5C(C)C)nc43)cc2)C1 [Compound I-384, (S)-2-(2-isopropylphenyl)-9-(4-(3-(2-methoxyethoxy)pyrrolidine-1-carbonyl)benzyl)-7,9-dihydro-8H-purin-8-one]
Second: COC1CCCN(C(=O)c2ccc(Cn3c(=O)[nH]c4cnc(-c5ccccc5C(C)C)nc43)cc2)C1 (centres unmarked) [Compound I-401, 2-(2-isopropylphenyl)-9-(4-(3-methoxypiperidine-1-carbonyl)benzyl)-7,9-dihydro-8H-purin-8-one]
The IC50 of the first is higher: 200 to 2000 nM for the first, 50 to 200 nM for the second.

`CC(C)c1ccccc1-c1ncc2[nH]c(=O)n(Cc3ccc(C(=O)N4C[C@@H](C)O[C@@H](C)C4)cc3)c2n1` [Compound I-385, 9-(4-((2R,6S)-2,6-dimethylmorpholine-4-carbonyl)benzyl)-2-(2-isopropylphenyl)-7,9-dihydro-8H-purin-8-one] and `CC(C)c1ccccc1-c1ncc2[nH]c(=O)n(Cc3ccc(C(=O)N4CC(F)C4)cc3)c2n1` [Compound I-386, 9-(4-(3-fluoroazetidine-1-carbonyl)benzyl)-2-(2-isopropylphenyl)-7,9-dihydro-8H-purin-8-one] fall in the same range of IC50: 50 to 200 nM for the first, 50 to 200 nM for the second.

First: CC(C)c1ccccc1-c1ncc2[nH]c(=O)n(Cc3ccc(C(=O)N[C@@H]4CCC[C@@H]4O)cc3)c2n1 [Compound I-387, N-((1R,2S)-2-hydroxycyclopentyl)-4-((2-(2-isopropylphenyl)-8-oxo-7,8-dihydro-9H-purin-9-yl)methyl)benzamide]
Second: CC(C)c1ccccc1-c1ncc2[nH]c(=O)n(Cc3ccc(C(=O)N4CCCC4C)cc3)c2n1 (centres unmarked) [Compound I-390, 2-(2-isopropylphenyl)-9-(4-(2-methylpyrrolidine-1-carbonyl)benzyl)-7,9-dihydro-8H-purin-8-one]
The IC50 of the first is higher: 50 to 200 nM for the first, less than 50 nM for the second.

First: CC(C)c1ccccc1-c1ncc2[nH]c(=O)n(Cc3ccc(C(=O)N4CCC(F)(F)CC4)cc3)c2n1 [Compound I-388, 9-(4-(4,4-difluoropiperidine-1-carbonyl)benzyl)-2-(2-isopropylphenyl)-7,9-dihydro-8H-purin-8-one]
Second: CC(C)c1ccccc1-c1ncc2[nH]c(=O)n(Cc3ccc(C(=O)N4CCC(F)(F)C4)cc3)c2n1 [Compound I-392, 9-(4-(3,3-difluoropyrrolidine-1-carbonyl)benzyl)-2-(2-isopropylphenyl)-7,9-dihydro-8H-purin-8-one]
The IC50 of the first is higher: 200 to 2000 nM for the first, less than 50 nM for the second.

`CC(C)c1ccccc1-c1ncc2[nH]c(=O)n(Cc3ccc(C(=O)N4CCCC4)cc3)c2n1` [Compound I-389, 2-(2-isopropylphenyl)-9-(4-(pyrrolidine-1-carbonyl)benzyl)-7,9-dihydro-8H-purin-8-one] and `CC1CCCN(C(=O)c2ccc(Cn3c(=O)[nH]c4cnc(-c5ccccc5C(C)C)nc43)cc2)C1` (centres unmarked) [Compound I-399, 2-(2-isopropylphenyl)-9-(4-(3-methylpiperidine-1-carbonyl)benzyl)-7,9-dihydro-8H-purin-8-one] cannot be ordered by IC50: less than 50 nM for the first, less than 50 nM for the second.

Compared with `COCC1(N(C)C(=O)c2ccc(Cn3c(=O)[nH]c4cnc(-c5ccccc5C(C)C)nc43)cc2)CC1` [Compound I-391, 4-((2-(2-isopropylphenyl)-8-oxo-7,8-dihydro-9H-purin-9-yl)methyl)-N-(1-(methoxymethyl)cyclopropyl)-N-methylbenzamide], `COCCN(C)C(=O)c1ccc(Cn2c(=O)[nH]c3cnc(-c4ccccc4C(C)C)nc32)cc1` [Compound I-407, 4-((2-(2-isopropylphenyl)-8-oxo-7,8-dihydro-9H-purin-9-yl)methyl)-N-(2-methoxyethyl)-N-methylbenzamide] is higher in IC50: less than 50 nM for the first, 50 to 200 nM for the second.

`CC(C)c1ccccc1-c1ncc2[nH]c(=O)n(Cc3ccc(C(=O)N4CC5(CCCO5)C4)cc3)c2n1` [Compound I-393, 9-(4-(5-oxa-2-azaspiro[3.4]octane-2-carbonyl)benzyl)-2-(2-isopropylphenyl)-7,9-dihydro-8H-purin-8-one] and `CC(C)c1ccccc1-c1ncc2[nH]c(=O)n(Cc3ccc(C(=O)N4CC5(CCOC5)C4)cc3)c2n1` [Compound I-394, 9-(4-(6-oxa-2-azaspiro[3.4]octane-2-carbonyl)benzyl)-2-(2-isopropylphenyl)-7,9-dihydro-8H-purin-8-one] fall in the same range of IC50: 200 to 2000 nM for the first, 200 to 2000 nM for the second.

`CC(C)c1ccccc1-c1ncc2[nH]c(=O)n(Cc3ccc(C(=O)N4CCC[C@@H]4C)cc3)c2n1` [Compound I-395, (S)-2-(2-isopropylphenyl)-9-(4-(2-methylpyrrolidine-1-carbonyl)benzyl)-7,9-dihydro-8H-purin-8-one] and `CC(C)c1ccccc1-c1ncc2[nH]c(=O)n(Cc3ccc(C(=O)N4CCCCC4C)cc3)c2n1` (centres unmarked) [Compound I-398, 2-(2-isopropylphenyl)-9-(4-(2-methylpiperidine-1-carbonyl)benzyl)-7,9-dihydro-8H-purin-8-one] cannot be ordered by IC50: less than 50 nM for the first, less than 50 nM for the second.

`COC[C@@H]1CCCN1C(=O)c1ccc(Cn2c(=O)[nH]c3cnc(-c4ccccc4C(C)C)nc32)cc1` [Compound I-396, (S)-2-(2-isopropylphenyl)-9-(4-(2-(methoxymethyl)pyrrolidine-1-carbonyl)benzyl)-7,9-dihydro-8H-purin-8-one] and `COC[C@H]1CCCN1C(=O)c1ccc(Cn2c(=O)[nH]c3cnc(-c4ccccc4C(C)C)nc32)cc1` [Compound I-403, (R)-2-(2-isopropylphenyl)-9-(4-(2-(methoxymethyl)pyrrolidine-1-carbonyl)benzyl)-7,9-dihydro-8H-purin-8-one] fall in the same range of IC50: 200 to 2000 nM for the first, 200 to 2000 nM for the second.

First: CCC1CCCCN1C(=O)c1ccc(Cn2c(=O)[nH]c3cnc(-c4ccccc4C(C)C)nc32)cc1 (centres unmarked) [Compound I-397, 9-(4-(2-ethylpiperidine-1-carbonyl)benzyl)-2-(2-isopropylphenyl)-7,9-dihydro-8H-purin-8-one]
Second: COCC1CCCCN1C(=O)c1ccc(Cn2c(=O)[nH]c3cnc(-c4ccccc4C(C)C)nc32)cc1 (centres unmarked) [Compound I-400, 2-(2-isopropylphenyl)-9-(4-(2-(methoxymethyl)piperidine-1-carbonyl)benzyl)-7,9-dihydro-8H-purin-8-one]
The IC50 of the first is lower: less than 50 nM for the first, 50 to 200 nM for the second.

`CC(C)c1ccccc1-c1ncc2[nH]c(=O)n(Cc3ccc(C(=O)N(C)C4CCOC4)cc3)c2n1` (centres unmarked) [Compound I-402, 4-((2-(2-isopropylphenyl)-8-oxo-7,8-dihydro-9H-purin-9-yl)methyl)-N-methyl-N-(tetrahydrofuran-3-yl)benzamide] and `CC(C)c1ccccc1-c1ncc2[nH]c(=O)n(Cc3ccc(C(=O)N4CCOC[C@H]4C)cc3)c2n1` [Compound I-404, (R)-2-(2-isopropylphenyl)-9-(4-(3-methylmorpholine-4-carbonyl)benzyl)-7,9-dihydro-8H-purin-8-one] fall in the same range of IC50: 200 to 2000 nM for the first, 200 to 2000 nM for the second.

First: CC(C)c1ccccc1-c1ncc2[nH]c(=O)n(Cc3ccc(C(=O)N4CCOC[C@@H]4C)cc3)c2n1 [Compound I-405, (S)-2-(2-isopropylphenyl)-9-(4-(3-methylmorpholine-4-carbonyl)benzyl)-7,9-dihydro-8H-purin-8-one]
Second: CC(C)c1ccccc1-c1ncc2[nH]c(=O)n(Cc3ccc(C(=O)N4CCCC45COC5)cc3)c2n1 [Compound I-411, 9-(4-(2-oxa-5-azaspiro[3.4]octane-5-carbonyl)benzyl)-2-(2-isopropylphenyl)-7,9-dihydro-8H-purin-8-one]
The IC50 of the first is higher: 200 to 2000 nM for the first, less than 50 nM for the second. The second is the more potent here.

Compared with `CC(C)c1ccccc1-c1ncc2[nH]c(=O)n(Cc3ccc(C(=O)N(C)CC(F)(F)F)cc3)c2n1` [Compound I-406, 4-((2-(2-isopropylphenyl)-8-oxo-7,8-dihydro-9H-purin-9-yl)methyl)-N-methyl-N-(2,2,2-trifluoroethyl)benzamide], `CC(C)c1ccccc1-c1ncc2[nH]c(=O)n(Cc3ccc(C(=O)NCCN(C)C)cc3)c2n1` [Compound I-408, N-(2-(dimethylamino)ethyl)-4-((2-(2-isopropylphenyl)-8-oxo-7,8-dihydro-9H-purin-9-yl)methyl)benzamide] is higher in IC50: 50 to 200 nM for the first, greater than 2000 nM for the second.

Going from `CC(C)c1ccccc1-c1ncc2[nH]c(=O)n(Cc3ccc(C(=O)NCCN4CCCCC4)cc3)c2n1` [Compound I-409, 4-((2-(2-isopropylphenyl)-8-oxo-7,8-dihydro-9H-purin-9-yl)methyl)-N-(2-(piperidin-1-yl)ethyl)benzamide] to `CCCOc1ncccc1-c1ncc2[nH]c(=O)n(Cc3ccc(-c4nc(C(F)(F)F)cn4C)cc3)c2n1` [Compound I-413, 9-(4-(1-methyl-4-(trifluoromethyl)-1H-imidazol-2-yl)benzyl)-2-(2-propoxypyridin-3-yl)-7,9-dihydro-8H-purin-8-one], the IC50 falls from greater than 2000 nM to less than 50 nM.

`COc1ncccc1-c1ncc2[nH]c(=O)n(Cc3ccc(-c4nc(C(F)(F)F)cn4C)cc3)c2n1` [Compound I-412, 2-(2-methoxypyridin-3-yl)-9-(4-(1-methyl-4-(trifluoromethyl)-1H-imidazol-2-yl)benzyl)-7,9-dihydro-8H-purin-8-one] and `Cn1cc(C(F)(F)F)nc1-c1ccc(Cn2c(=O)[nH]c3cnc(-c4cccnc4OCC4CC4)nc32)cc1` [Compound I-414, 2-(2-(cyclopropylmethoxy)pyridin-3-yl)-9-(4-(1-methyl-4-(trifluoromethyl)-1H-imidazol-2-yl)benzyl)-7,9-dihydro-8H-purin-8-one] cannot be ordered by IC50: less than 50 nM for the first, less than 50 nM for the second.
